Several values for one entry are separate records, joined by “and”; a condition that tells them apart may be missing. Equal values may be shown once. Where a name gives a salt, the structure may show the parent alone. Read-outs that look alike come from different tables or passages of the source.
What was measured:
[1] = target: protein synthesis in rabbit reticulocyte lysate; experiment: Inhibition of protein synthesis in rabbit reticulocyte lysates (luciferase mRNA translation); type: biochemical
Protocol: The TnT® Quick Coupled Transcription/Translation System from Promega (WI, USA; L1170) was used to evaluate inhibitory effects of ipecac alkaloids and cycloheximide on protein synthesis. Assay conditions were employed as recommended by the manufacturer. Briefly, reactions (20 μl) contained 80 % TNT Quick master mix, 20 µM methionine, 40 ng/µL luciferase RNA (Promega; L4561), and test chemicals. Samples were incubated at 30 °C for 90 min and diluted 10-fold with PBS. An aliquot (2 μl) was mixed with 20 μl of luciferase assay reagent (Promega; E1500) and luminescence was measured with a Turner Designs luminometer (model TD-20/20).

[2] = tested on: protein synthesis in BEC-hACE2 cells; experiment: Puromycin pulse labeling, protein synthesis in cultured BEC-hACE2 cells; type: cell-based, human; details: for inhibition at 1 µM: BEC-hACE2, 1 μM
HCoV-OC43 = experiment: Antiviral activity against HCoV-OC43 in Vero E6 cells (RT-qPCR of N-gene); type: cell-based
Protocol: Vero E6 cells (∼5 × 10^4 cells/cm^2 in 24-well plates) were infected with […] at MOI of 20 genomes per cell in 2 % FBS-EMEM at 33 °C, 5 % CO2 with gently mixing for 2 h. Infection medium was removed, cells were washed with fresh medium followed by the addition of compounds at indicated concentrations in 2 % FBS-EMEM. After 72 h, 100 µL of medium was collected and stored at −80 °C for viral RNA isolation and RT-qPCR analysis as detailed below. Drugs were added to the medium prior to and after viral absorption for comparison.
HCoV-OC43 RNA was isolated from 100 µL of medium using Quick-RNA Viral Kit-DX (Zymo Research, CA, USA; R1035). The relative amount of viral genomic RNA was determined with Luna Universal One-Step RT-qPCR Kit (New England Biolabs, MA, USA; E3005). […]
RT-qPCR cycles were set for 20 min at 55 °C, 1 min at 95 °C followed by 45 cycles of 95 °C for 10 s, 48 °C for 30 s and 60 °C for 1 min. The threshold cycle (Ct) for each sample was determined using the Opticon Monitor 3 Program (BioRad). Drug effects on viral propagation were evaluated assuming that a difference of one cycle corresponds to a two-fold difference in the number of copies of viral RNA. Ct values obtained for drug-free samples were considered as 100 % viral propagation.

Vero E6 cells = experiment: MTS assay, growth inhibition and toxicity in non-infected Vero E6 cells; type: cell-based, African green monkey; details: for Concentrations at which drug is cytotoxic: Vero E6, MTS
Protocol: (§1) Detailed methods are provided in Supplementary Information.
(§2) Vero E6 and BEC-hACE2 cells were grown to 70-80% density in their maintenance media and exposed to various concentrations of ipecac alkaloids (0.0125 – 200 µM) under standard culture conditions for 48-72 h and 24 h, respectively. Controls with varying amounts of DMSO and no DMSO were included also. Vero E6 cells were incubated with drugs in 2% FBS-EMEM, while BEC-HACE2 cells were grown and treated in complete PCS-300-03 medium with supplements. Similar treatments were also conducted using fully confluent non-growing BEC-hACE2 cells. At the end of the exposure period, MTS reagent (Promega G3580) was added at 1/5th of the medium volume and color was allowed to develop by incubation of the plates for an hour in a cell culture incubator. To stop reactions, SDS was added to a final concentration of 2% and optical density of samples was measured at 450 or 490 nm, depending on the model of spectrophotometer (PharmaciaBiotech, NJ, USA; UV spectrophotometer, model Ultrospec2000) or plate reader (Molecular Devices, CA, USA; model Filter Max F5 Multi-mode microplate reader) available at the time of experiment.

BEC-hACE2 cells [3] = experiment: MTS assay, growth inhibition and toxicity in non-infected BEC-hACE2 cells; type: cell-based, human; details: for MTS, TGI (beginning of the plateau): BEC-hACE2, 24 h
Protocol: as §1, §2

BEC-hACE2 cells [4] = experiment: Sulforhodamine B (SRB) assay in non-infected BEC-hACE2 cells; type: cell-based, human; details: for GI50 / SRB, TGI: BEC-hACE2, 24 h; for GI50: read-out: SRB, GI50
Protocol: as §1
This method has been used by the National Cancer Institute to evaluate drug candidates for their activities as growth inhibitors and toxins in human cancer cell lines. NCI’s protocols for SRB assay were strictly followed^81, 82. On the day of exposure (Day 0), several wells of untreated cells were fixed by addition of trichloroacetic acid (TCA, 10% V/V) and incubated for one hour at 4°C. The supernatant was discarded, wells washed five times with tap water and then air-dried. Samples were stored at room temperature until cells exposed to ipecac alkaloids or DMSO for 24 h were fixed in a similar manner. For color development, 500 µl of 0.4% SRB reagent prepared in 1% acetic acid was added to fixed cells and samples were incubated at room temperature for 15 min with gentle rocking. Unbound dye was removed by five washes with 1% acetic acid and plates were air-dried. Trizma base (10 mM) was used to dissolve the stain and absorbance was measured at 515 nm using a spectrophotometer. By comparing absorption values obtained at day 0 to the signal at day 1, with and without drugs, this protocol permits distinguishing growth inhibition from toxicity of the test compounds.

[5] = target: T1, l-type calcium current ICaL (Cavia porcellus, UniProt O35505); experiment: Patch clamp recording of ICaL in guinea pig ventricular myocytes; type: cell-based; details: for IC50: GP cardiomyocytes, read-out: IC50, calcium channel (ICaL) blocking activity; for Kd: guinea pig ventricular myocytes, Langmuir isotherm, 5-60 μM, read-out: KD for inhibition of ICaL
T1 construct: from tissue; host or cells: freshly dissociated guinea pig ventricular myocytes
T1 sequence (O35505 whole entry): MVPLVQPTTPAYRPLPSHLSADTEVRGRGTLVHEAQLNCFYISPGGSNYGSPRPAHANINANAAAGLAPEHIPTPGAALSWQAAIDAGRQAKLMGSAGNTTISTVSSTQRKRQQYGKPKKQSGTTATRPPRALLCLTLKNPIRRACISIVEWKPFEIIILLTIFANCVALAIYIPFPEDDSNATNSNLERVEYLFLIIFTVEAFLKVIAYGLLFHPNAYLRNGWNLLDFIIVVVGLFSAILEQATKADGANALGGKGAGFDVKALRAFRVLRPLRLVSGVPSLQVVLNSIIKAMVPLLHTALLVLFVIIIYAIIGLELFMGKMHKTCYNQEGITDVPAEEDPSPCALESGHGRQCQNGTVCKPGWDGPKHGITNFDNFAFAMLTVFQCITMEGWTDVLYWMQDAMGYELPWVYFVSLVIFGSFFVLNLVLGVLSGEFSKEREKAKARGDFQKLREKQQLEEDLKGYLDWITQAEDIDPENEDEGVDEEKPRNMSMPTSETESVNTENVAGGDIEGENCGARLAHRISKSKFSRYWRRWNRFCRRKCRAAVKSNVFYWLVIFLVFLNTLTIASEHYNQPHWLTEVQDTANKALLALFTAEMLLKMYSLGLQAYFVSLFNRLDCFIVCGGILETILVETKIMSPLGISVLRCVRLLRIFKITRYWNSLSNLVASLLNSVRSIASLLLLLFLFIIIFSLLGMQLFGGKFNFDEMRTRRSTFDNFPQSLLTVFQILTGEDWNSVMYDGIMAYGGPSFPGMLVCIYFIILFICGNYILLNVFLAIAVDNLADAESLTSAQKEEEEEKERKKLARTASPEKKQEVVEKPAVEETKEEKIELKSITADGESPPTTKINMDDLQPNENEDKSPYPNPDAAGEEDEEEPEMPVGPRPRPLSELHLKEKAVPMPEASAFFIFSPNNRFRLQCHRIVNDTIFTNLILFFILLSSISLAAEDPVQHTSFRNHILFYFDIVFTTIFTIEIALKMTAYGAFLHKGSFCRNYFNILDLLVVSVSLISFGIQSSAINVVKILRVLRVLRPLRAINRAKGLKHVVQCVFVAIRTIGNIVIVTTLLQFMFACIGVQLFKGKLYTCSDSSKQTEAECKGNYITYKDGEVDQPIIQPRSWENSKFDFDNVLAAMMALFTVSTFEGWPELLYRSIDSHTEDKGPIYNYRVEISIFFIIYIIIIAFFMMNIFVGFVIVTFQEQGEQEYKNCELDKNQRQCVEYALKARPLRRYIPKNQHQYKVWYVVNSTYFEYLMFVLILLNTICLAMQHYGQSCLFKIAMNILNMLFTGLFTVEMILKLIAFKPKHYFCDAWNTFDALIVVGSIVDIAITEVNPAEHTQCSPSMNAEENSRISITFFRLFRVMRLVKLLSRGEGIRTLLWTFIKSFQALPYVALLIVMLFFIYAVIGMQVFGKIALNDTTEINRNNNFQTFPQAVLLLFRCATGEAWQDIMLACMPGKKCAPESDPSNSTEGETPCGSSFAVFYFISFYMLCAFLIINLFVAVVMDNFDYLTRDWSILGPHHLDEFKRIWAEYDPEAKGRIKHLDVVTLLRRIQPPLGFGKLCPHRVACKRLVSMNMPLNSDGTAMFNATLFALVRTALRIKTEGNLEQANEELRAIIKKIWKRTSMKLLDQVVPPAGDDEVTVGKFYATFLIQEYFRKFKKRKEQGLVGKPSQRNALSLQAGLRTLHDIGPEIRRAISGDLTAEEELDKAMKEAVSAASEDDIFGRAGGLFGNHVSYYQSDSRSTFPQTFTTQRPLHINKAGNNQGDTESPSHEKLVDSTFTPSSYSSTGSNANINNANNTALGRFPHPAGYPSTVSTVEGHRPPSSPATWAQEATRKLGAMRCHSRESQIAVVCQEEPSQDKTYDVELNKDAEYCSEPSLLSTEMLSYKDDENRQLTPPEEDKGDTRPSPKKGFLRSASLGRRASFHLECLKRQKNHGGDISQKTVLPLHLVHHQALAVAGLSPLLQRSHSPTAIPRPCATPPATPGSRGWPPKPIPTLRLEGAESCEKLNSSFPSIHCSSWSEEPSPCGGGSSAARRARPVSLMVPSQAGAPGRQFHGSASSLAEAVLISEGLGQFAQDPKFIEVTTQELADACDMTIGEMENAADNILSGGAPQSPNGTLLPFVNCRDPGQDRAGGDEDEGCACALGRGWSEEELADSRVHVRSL

SARS-CoV-2 = experiment: Antiviral activity against SARS-CoV-2 in BEC-hACE2 cells (RT-qPCR)
[6] = Betacoronavirus 1, OC43, Vero C1008, 72 h, Vero E6, 72 h, read-out: Antiviral IC50
[7] = Betacoronavirus 1, OC43, Vero C1008, Vero E6, drug added after viral absorption, 72 hpi, read-out: Antiviral IC50
[8] = Severe acute respiratory syndrome coronavirus 2, read-out: Anti-SARS-CoV2, IC50, subconfluent BEC-hACE2, drug after viral absorption, 24 hpi
[9] = Severe acute respiratory syndrome coronavirus 2, read-out: Anti-SARS-CoV-2 IC50, BEC-hACE2, 24 hpi
[10] = Homo sapiens, read-out: Protein synthesis inhibition,%

## CCC1=C(C[C@H]2NCCc3cc(OC)c(OC)cc32)C[C@H]2c3cc(OC)c(OC)cc3CCN2C1 [DHE4, 4H-Benzo[a]quinolizine, 3-ethyl-1,6,7,11b-tetrahydro-9,10-dimethoxy-2-[[(1R)-1,2,3,4-tetrahydro-6,7-dimethoxy-1-isoquinolinyl]methyl]-, (11bS)-]
[1]; luciferase mRNA, 30 °C, 90 min
  IC50: 1300 nM and 1330 nM
[2]; Homo sapiens
  inhibition at 1 µM: 97%
HCoV-OC43; [6]
  IC50: 40 to 60 nM
HCoV-OC43; [7]
  IC50: 63 ± 4 nM
HCoV-OC43; Betacoronavirus 1, OC43, Vero C1008, read-out: Antiviral IC50, Vero E6, drug 1 h before viral absorption and 72 h after infection (1 hbi/72 hpi)
  IC50: 66 ± 6 nM
HCoV-OC43; HCoV-OC43, Vero E6, 72 hpi
  Selectivity index, (SI) CC50/IC50: 52
Vero E6 cells
  Concentrations at which drug is cytotoxic: higher than 10 μM
BEC-hACE2 cells [3]
  MTS, TGI (beginning of the plateau): 125 nM
BEC-hACE2 cells [3]; BEC-hACE2, at 100 μM
  MTS, decrease: 40%
  MTS, nature of the effect: cytostatic
BEC-hACE2 cells [3]; sub-confluent BEC-hACE2, 24 h
  MTS, CC50 (50 % effect): Effect not reached
BEC-hACE2 cells [4]
  GI50: 62 ± 17 nM
BEC-hACE2 cells [4]; Homo sapiens, 24 h
  GI50: 60 nM
[5]
  IC50: 40000 to 60000 nM
  Kd: 54000 nM
SARS-CoV-2; SARS-CoV-2, BEC-hACE2
  SI from MTS CC50 (50 % effect): exceed 1500
SARS-CoV-2; [8]
  IC50: 88 ± 23 nM
SARS-CoV-2; [9]
  IC50: 50 to 100 nM

## CC[C@H]1CN2CCc3cc(OC)c(OC)cc3[C@@H]2C[C@@H]1C[C@H]1NCCc2cc(OC)c(OC)cc21 [Emetine, 2H-Benzoaquinolizine, 3-ethyl-1,3,4,6,7,11b-hexahydro-9,10-dimethoxy-2-(1R)-1,2,3,4-tetrahydro-6,7-dimethoxy-1-isoquinolinylmethyl-, dihydrochloride, (2S,3R,11bS)-, reference compound]
[1]; luciferase mRNA, 30 °C, 90 min
  IC50: 1200 nM and 1210 nM
[2]; Homo sapiens, read-out: IC50, protein synthesis
  IC50: ~200 nM
[2]; [10]
  inhibition at 0.05 µM: 7%
  inhibition at 0.1 µM: 30%
  inhibition at 0.3 µM: 80%
  inhibition at 1000 µM: 97%
[2]; Homo sapiens, 0.5 μM, read-out: Inhibition of translation activity in host cells
  inhibition at 0.5 µM: ≥ 90%
[2]; Homo sapiens
  inhibition at 1 µM: 97%
[2]; Homo sapiens, BEC-hACE2, 10 μM
  inhibition at 10 µM: 100%
[2]; Homo sapiens, BEC-hACE2, read-out: IC50, protein synthesis inhibition
  IC50: ~120 nM
HCoV-OC43; [6]
  IC50: 40 to 60 nM
HCoV-OC43; Betacoronavirus 1, OC43, Vero C1008, Vero E6, drug 1 h before viral absorption and 72 h after infection (1 hbi/72 hpi), read-out: Antiviral IC50
  IC50: 44 ± 2 nM
HCoV-OC43; [7]
  IC50: 40 ± 2 nM
Vero E6 cells
  Concentrations at which drug is cytotoxic: higher than 10 μM
BEC-hACE2 cells [3]
  MTS, TGI (beginning of the plateau): 125 nM
BEC-hACE2 cells [3]; BEC-hACE2, at 100 μM
  MTS, nature of the effect: cytostatic
BEC-hACE2 cells [4]
  SRB, TGI: 250 to 500 nM
BEC-hACE2 cells [4]; listed as EMT
  SRB, TGI: ∼ 0.25–0.5 μM
  GI50: 112 ± 22 nM
BEC-hACE2 cells [4]; Homo sapiens, 24 h
  GI50: 110 nM
[5]; 0.5 μM
  Impact on ICaL: 1%
[5]; 5 μM
  inhibition at 5 µM: ~10%
[5]
  IC50: ~57000 nM and 40000 to 60000 nM
  Kd: 57000 nM
[5]; GP ventricular myocytes, assuming 25 µM
  Estimated reduction in ICaL: over thirty-three percent
SARS-CoV-2; [8]
  IC50: 52 ± 3 nM
SARS-CoV-2; [9]
  IC50: ~52 nM
SARS-CoV-2; Severe acute respiratory syndrome coronavirus 2, read-out: Inhibition of viral propagation
  inhibition at 0.5 µM: ≥ 90%
SARS-CoV-2; read-out: Anti-SARS-CoV-2 IC50, BEC-hACE2, 24 hpi
  IC50: 50 to 100 nM

## CC[C@H]1CN2CCc3cc(OC)c(OC)cc3[C@@H]2C[C@@H]1C[C@@H]1NCCc2cc(OC)c(OC)cc21.Cl.Cl [Isoemetine, 2H-Benzoaquinolizine, 3-ethyl-1,3,4,6,7,11b-hexahydro-9,10-dimethoxy-2-(1S)-1,2,3,4-tetrahydro-6,7-dimethoxy-1-isoquinolinylmethyl-, dihydrochloride, (2S,3R,11bS)-]
[1]; concentration range 0.1 - 100 μM
  Inhibitory effects on translation in rabbit reticulocyte lysate: no inhibitory effects
[1]; luciferase mRNA, 30 °C, 90 min
  IC50, protein synthesis inhibition in rabbit reticulocyte lysate: Not active
[2]; BEC-hACE2, 10 μM, 10 µM
  Protein synthesis inhibition,%: 20%
[2]; BEC-hACE2, 10 μM, listed as ISOEMT, 10 µM
  Protein synthesis inhibition,%: 18%
[2]; BEC-hACE2, 30 μM, 30 µM
  Protein synthesis inhibition,%: 50%
[2]; BEC-hACE2, 30 μM, listed as ISOEMT, 30 µM
  Protein synthesis inhibition,%: 47%
HCoV-OC43; Vero E6, drug added after viral absorption, 72 hpi, read-out: Antiviral IC50
  IC50: 1050 ± 213 nM
Vero E6 cells; MTS, 72 h, read-out: Fifty percent effect (CC50) in non-infected Vero E6
  CC50: 114000 ± 13100 nM
BEC-hACE2 cells [3]; BEC-hACE2, at 100 μM
  MTS, nature of the effect: cytotoxic
BEC-hACE2 cells [3]; sub-confluent BEC-hACE2, 24 h
  Concentrations at which cells are affected (MTS): above 50 μM
BEC-hACE2 cells [3]; sub-confluent BEC-hACE2, 24 h, read-out: MTS, CC50 (50 % effect)
  CC50: 100000 nM
BEC-hACE2 cells [4]
  SRB, TGI: ~200000 nM
  GI50: 19400 ± 3860 nM
BEC-hACE2 cells [4]; BEC-hACE2, at ∼200 μM
  SRB, nature of the effect: toxic
[5]
  Kd: 42000 nM
SARS-CoV-2; read-out: Anti-SARS-CoV2, IC50, subconfluent BEC-hACE2, drug after viral absorption, 24 hpi
  IC50: 16500 nM
SARS-CoV-2; read-out: Anti-SARS-CoV2, IC50, subconfluent BEC-hACE2, drug after viral absorption, 24 hpi, listed as ISOEMT
  IC50: 16500 ± 6240 nM
